# From paper PMC9021288 (Nature Communications, 2022)
# “And” between values parts separate entries of the source, which are not always exact repeats. Equal values may be shown once. “Also recorded” adds a separate entry of the source.
# Key:
# [1] = Blood to plasma ratio, mouse
# AcAS (PF3D7_0627800) = test: Cellular thermal shift assay on parasite lysate; format: binding, Plasmodium falciparum; conditions: 1 µM; for AcAS band intensity normalized to DMSO at 37 °C: listed as iPanAm
# Description: A cellular thermal shift assay (CETSA) was performed on infected RBCs or parasite lysates as described previously.
# For a CETSA on parasite lysates, synchronized trophozoite cultures (ACS11-tagged parasites) were treated with 0.1% saponin to lyse the RBCs, and washed three times in PBS. Subsequently, parasite pellets were resuspended in 1× lysis buffer and subjected to three flash-freeze-thaw cycles using liquid nitrogen, followed by mechanical shearing using a syringe with a 25 G and a 30 G needle. Samples were spun down at 18,000 g for 20 min at 4 °C. The supernatant was diluted to 2.1 mg/ml protein concentration, and 100 µl was added to each PCR tube containing 1 µl of the compound at a 100× concentration (final concentration of 1 µM). Samples were incubated for 30 min at room temperature, subjected to a thermal gradient for 3 min on a pre-heated PCR machine, followed by 4 °C for 3 min. Samples were spun down at 18,000 g for 20 min at 4 °C and the soluble fraction was flash-frozen in liquid nitrogen and stored at −80 °C.
# Samples were loaded on an 8% SDS-Page gel (Genscript) with 4×10^6 infected RBCs or 50 µg protein for the parasite lysate approach. Proteins were transferred to a nitrocellulose membrane that was blocked with 5% skim milk (Sigma) in PBS overnight and incubated with rabbit antiserum against AcAS (1:1000) for 1 h. Subsequently, membranes were washed three times with PBS-Tween for 5 min, followed by incubation with secondary horseradish peroxide (HRP)-conjugated goat anti-rabbit antibodies (Dako P0448, 1:1000) for 1 h. Blots were then washed three times with PBS-Tween for 5 min and twice with PBS. Following a 5-min incubation with Clarity Max Western ECL Substrate (BioRad), protein blots were imaged using the ImageQuant LAS4000 (GE Healthcare). The band intensity was quantified using Fiji software.
# [2] = molecular target: T1, panel of human receptors and channels (Homo sapiens, UniProt P23975); format: binding; conditions: norepinephrine transporter (h) (antagonist radioligand); Rep1, Rep2, Mean
# T1 construct: purchased Eurofins CEREP
# T1 sequence (P23975 whole entry): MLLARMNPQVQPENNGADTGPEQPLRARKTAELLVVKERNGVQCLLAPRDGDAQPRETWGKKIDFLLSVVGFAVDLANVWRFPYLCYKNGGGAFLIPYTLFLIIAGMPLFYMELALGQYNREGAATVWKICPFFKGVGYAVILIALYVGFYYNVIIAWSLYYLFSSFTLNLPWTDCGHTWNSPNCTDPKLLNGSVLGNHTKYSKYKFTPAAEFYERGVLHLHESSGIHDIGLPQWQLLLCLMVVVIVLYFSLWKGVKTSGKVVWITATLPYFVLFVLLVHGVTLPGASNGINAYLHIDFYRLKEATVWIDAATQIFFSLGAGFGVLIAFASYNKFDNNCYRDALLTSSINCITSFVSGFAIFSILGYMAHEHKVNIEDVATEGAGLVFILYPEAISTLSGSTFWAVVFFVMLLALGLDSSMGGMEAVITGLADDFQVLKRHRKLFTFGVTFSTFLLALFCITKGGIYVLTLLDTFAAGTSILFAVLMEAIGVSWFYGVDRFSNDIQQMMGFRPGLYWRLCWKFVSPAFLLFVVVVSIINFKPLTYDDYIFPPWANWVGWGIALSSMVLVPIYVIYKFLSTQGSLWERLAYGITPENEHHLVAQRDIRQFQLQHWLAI
# [3] = molecular target: T2, panel of human receptors and channels (Homo sapiens, UniProt P34998); format: binding; conditions: CRF1 (h) (agonist radioligand); Rep1, Rep2, Mean
# T2 construct: purchased Eurofins CEREP
# T2 sequence (P34998 24-415): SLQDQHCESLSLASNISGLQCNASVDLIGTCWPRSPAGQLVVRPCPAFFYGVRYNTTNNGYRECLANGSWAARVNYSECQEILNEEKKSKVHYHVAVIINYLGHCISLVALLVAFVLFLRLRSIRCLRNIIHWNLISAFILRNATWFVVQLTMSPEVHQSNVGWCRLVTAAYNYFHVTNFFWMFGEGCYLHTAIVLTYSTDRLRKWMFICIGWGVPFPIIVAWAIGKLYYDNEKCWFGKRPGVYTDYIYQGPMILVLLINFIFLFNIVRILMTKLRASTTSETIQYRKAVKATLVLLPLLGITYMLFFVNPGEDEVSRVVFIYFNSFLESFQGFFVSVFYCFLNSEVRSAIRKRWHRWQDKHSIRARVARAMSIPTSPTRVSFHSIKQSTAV
# [4] = molecular target: T3, panel of human receptors and channels (Homo sapiens, UniProt Q9Y5N1); format: binding; conditions: H3 (h) (agonist radioligand); Rep1, Rep2, Mean
# T3 construct: purchased Eurofins CEREP
# T3 sequence (Q9Y5N1 whole entry): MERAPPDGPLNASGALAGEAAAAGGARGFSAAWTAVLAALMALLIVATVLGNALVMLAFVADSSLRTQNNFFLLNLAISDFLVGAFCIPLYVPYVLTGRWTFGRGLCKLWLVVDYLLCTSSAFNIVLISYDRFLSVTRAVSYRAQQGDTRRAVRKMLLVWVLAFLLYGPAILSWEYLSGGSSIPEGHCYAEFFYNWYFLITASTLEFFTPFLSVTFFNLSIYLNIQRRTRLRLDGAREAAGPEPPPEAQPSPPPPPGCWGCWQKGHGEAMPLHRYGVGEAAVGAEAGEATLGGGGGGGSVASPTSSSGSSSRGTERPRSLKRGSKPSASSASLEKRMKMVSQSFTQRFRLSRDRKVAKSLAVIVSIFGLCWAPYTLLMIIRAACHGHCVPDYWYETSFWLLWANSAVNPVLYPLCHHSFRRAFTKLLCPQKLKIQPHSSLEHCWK
# [5] = molecular target: T4, panel of human receptors and channels (Homo sapiens, UniProt P31645); format: binding; conditions: 5-HT transporter (h) (antagonist radioligand); Rep1, Rep2, Mean
# T4 construct: purchased Eurofins CEREP
# T4 sequence (P31645 whole entry): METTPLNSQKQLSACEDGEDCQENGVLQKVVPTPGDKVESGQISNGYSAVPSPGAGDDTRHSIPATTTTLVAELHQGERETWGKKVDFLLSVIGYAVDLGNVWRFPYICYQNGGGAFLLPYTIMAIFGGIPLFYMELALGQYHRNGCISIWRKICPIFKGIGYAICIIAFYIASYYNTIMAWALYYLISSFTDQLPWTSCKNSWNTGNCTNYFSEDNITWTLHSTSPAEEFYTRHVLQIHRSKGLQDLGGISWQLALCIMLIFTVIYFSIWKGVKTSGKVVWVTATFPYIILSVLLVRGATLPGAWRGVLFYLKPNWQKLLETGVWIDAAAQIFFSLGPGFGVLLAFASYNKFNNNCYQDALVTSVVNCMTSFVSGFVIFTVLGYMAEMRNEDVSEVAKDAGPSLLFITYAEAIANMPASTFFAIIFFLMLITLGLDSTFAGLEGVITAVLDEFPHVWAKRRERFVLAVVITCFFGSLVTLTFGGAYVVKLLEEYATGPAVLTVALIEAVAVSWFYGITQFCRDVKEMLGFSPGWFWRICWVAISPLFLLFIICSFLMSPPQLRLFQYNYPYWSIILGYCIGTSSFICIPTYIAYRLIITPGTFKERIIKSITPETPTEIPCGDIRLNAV
# [6] = molecular target: T5, panel of human receptors and channels (Homo sapiens, UniProt P21728); format: binding; conditions: D1 (h) (antagonist radioligand); Rep1, Rep2, Mean
# T5 construct: purchased Eurofins CEREP
# T5 sequence (P21728 whole entry): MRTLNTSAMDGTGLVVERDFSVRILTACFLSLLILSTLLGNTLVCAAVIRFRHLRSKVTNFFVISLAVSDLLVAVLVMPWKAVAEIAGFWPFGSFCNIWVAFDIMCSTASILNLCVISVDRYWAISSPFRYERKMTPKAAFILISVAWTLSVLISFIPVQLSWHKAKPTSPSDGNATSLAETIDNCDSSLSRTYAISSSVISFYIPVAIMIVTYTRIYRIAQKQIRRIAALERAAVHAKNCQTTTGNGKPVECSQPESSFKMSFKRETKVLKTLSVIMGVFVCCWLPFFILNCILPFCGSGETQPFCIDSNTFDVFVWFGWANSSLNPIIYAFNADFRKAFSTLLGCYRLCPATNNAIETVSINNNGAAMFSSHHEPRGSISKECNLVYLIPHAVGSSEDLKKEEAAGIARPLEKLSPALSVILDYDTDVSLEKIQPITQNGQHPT
# CYP3A4 = test: CYP induction (mRNA) in human hepatocytes; format: in vitro ADME; conditions: for CYP3A4 mean fold induction: per donor
# Description: (§1) Positive control inducers (omeprazole for CYP1A2, phenobarbital for CYP2B6, and rifampicin for CYP3A4), were incubated alongside the test compound. For mRNA assessment, cells were lysed and resultant samples analyzed using an ABI 7900 HT real-time PCR system.
# CYP2B6 = test: CYP induction (mRNA) in human hepatocytes; format: in vitro ADME; conditions: for CYP2B6 mean fold induction: per donor
# Description: as §1
# CYP1A2 = test: CYP induction (mRNA) in human hepatocytes; format: in vitro ADME; conditions: for CYP1A2 mean fold induction: per donor
# Description: as §1
# [7] = Blood to plasma ratio, human
# [8] = Metabolite identification in dog plasma and urine; conditions: in vivo
# human recombinant CYP3A5 = molecular target: T6, human recombinant CYP3A5 (Homo sapiens, UniProt P20815); test: CYP reaction phenotyping; format: in vitro ADME; conditions: for Compound remaining (0 min = 100): CYP3A5
# T6 construct: purchased Bactosomes (assay run at Cyprotex)
# T6 sequence (P20815 whole entry): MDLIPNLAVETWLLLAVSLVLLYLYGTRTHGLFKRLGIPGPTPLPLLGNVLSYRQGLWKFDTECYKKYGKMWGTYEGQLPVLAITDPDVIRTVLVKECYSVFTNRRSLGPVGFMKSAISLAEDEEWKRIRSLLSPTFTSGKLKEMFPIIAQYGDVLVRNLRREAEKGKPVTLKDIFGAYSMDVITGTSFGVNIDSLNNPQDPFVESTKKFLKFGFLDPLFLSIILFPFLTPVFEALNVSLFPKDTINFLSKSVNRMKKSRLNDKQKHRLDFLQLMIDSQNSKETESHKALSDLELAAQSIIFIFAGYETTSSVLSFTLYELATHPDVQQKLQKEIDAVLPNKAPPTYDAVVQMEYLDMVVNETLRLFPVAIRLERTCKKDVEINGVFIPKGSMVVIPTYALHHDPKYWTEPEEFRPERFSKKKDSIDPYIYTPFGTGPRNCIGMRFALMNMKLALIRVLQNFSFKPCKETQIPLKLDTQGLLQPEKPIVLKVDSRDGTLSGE
# Description: (§2) In vitro CYP reaction phenotyping was performed at Cyprotex (Alderly Park, United Kingdom). […] The remaining test compound at each time point was analyzed by LC-MS/MS.
# human recombinant CYP2C9 = molecular target: T7, human recombinant CYP2C9 (Homo sapiens, UniProt P11712); test: CYP reaction phenotyping; format: in vitro ADME
# T7 construct: purchased Bactosomes (assay run at Cyprotex)
# T7 sequence (P11712 whole entry): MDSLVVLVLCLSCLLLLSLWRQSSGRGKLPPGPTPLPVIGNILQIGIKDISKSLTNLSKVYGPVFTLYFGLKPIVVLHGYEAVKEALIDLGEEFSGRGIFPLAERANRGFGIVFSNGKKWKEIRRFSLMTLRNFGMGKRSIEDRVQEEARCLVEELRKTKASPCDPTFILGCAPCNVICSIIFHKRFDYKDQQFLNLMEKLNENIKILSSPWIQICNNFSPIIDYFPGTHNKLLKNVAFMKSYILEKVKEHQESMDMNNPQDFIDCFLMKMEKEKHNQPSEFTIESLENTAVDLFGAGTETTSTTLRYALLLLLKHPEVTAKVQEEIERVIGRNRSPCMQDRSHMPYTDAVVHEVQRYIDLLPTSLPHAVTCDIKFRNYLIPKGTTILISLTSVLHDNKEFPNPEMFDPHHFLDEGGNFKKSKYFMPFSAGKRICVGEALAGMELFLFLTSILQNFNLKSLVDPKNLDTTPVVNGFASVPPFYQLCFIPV
# Description: as §2
# [9] = UV scan for phototoxicity; format: physicochemical
# [10] = test system: cryopreserved human hepatocytes; test: MTT cytotoxicity in induction-study hepatocytes; format: cell-based; conditions: up to 500 µM, 72 h, one donor
structure (smiles),measurement,setting,value
C[C@@H](CNC(=O)[C@H](O)C(C)(C)CO)NC(=O)c1cc(F)c(F)cc1F [MMV693183],B:P,[1],0.98
same,AcAS band intensity normalized to DMSO at 37 °C,AcAS (PF3D7_0627800); 37 °C,134.836
same,AcAS band intensity normalized to DMSO at 37 °C,AcAS (PF3D7_0627800); 42 °C,174.374
same,AcAS band intensity normalized to DMSO at 37 °C,AcAS (PF3D7_0627800); 47 °C,76.9786
same,AcAS band intensity normalized to DMSO at 37 °C,AcAS (PF3D7_0627800); 52 °C,24.7861
same,AcAS thermal stability,"AcAS (PF3D7_0627800); 30 min, parasite lysate",neither the parent compound MMV693183 nor its derivative 4’P-MMV693183 affected AcAS stability
same,% Inhibition of Control Specific Binding,[2],-1.3% and -5.4% and -3.35%
same,% Inhibition of Control Specific Binding,[3],16.8% and 10.5% and 13.65%
same,% Inhibition of Control Specific Binding,[4],-9.8% and -18.8% and -14.3%
same,% Inhibition of Control Specific Binding,[5],-13.7% and -4.2% and -8.95%
same,% Inhibition of Control Specific Binding,[6],-2.9% and 0.3% and -1.3%
same,CYP3A4 mean fold induction,CYP3A4; 5 µM,1.22 and 1.03 and 1.21
same,CYP3A4 mean fold induction,CYP3A4; 15 µM,0.824 and 0.905 and 0.816
same,CYP3A4 mean fold induction,CYP3A4; 50 µM,0.779 and 0.500 and 1.26
same,CYP3A4 mean fold induction,CYP3A4; 150 µM,1.19 and 0.477 and 1.98
same,CYP3A4 mean fold induction,CYP3A4; 250 µM,0.665 and 2.86
same,CYP3A4 mean fold induction,CYP3A4; 500 µM,3.6 and 3.63 and 1.49 and 3.16
same,concentration at which CYP3A4 was induced,"CYP3A4; 72 h, three donors",greater than 150 µM
same,CYP2B6 mean fold induction,CYP2B6; 5 µM,1.75 and 0.995 and 1.18
same,CYP2B6 mean fold induction,CYP2B6; 15 µM,1.38 and 0.951 and 1.660
same,CYP2B6 mean fold induction,CYP2B6; 50 µM,0.959 and 0.828 and 0.886
same,CYP2B6 mean fold induction,CYP2B6; 150 µM,0.663 and 0.721 and 0.727
same,CYP2B6 mean fold induction,CYP2B6; 250 µM,0.667 and 0.582
same,CYP2B6 mean fold induction,CYP2B6; 500 µM,0.495 and 0.699 and 0.325
same,CYP2B6 induction,CYP2B6; up to 500 µM,did not induce CYP1A2 nor CYP2B6
same,CYP1A2 mean fold induction,CYP1A2; 5 µM,1.48 and 1.11 and 1.38
same,CYP1A2 mean fold induction,CYP1A2; 15 µM,1.04 and 1.07 and 0.844
same,CYP1A2 mean fold induction,CYP1A2; 50 µM,0.874 and 0.824 and 0.795
same,CYP1A2 mean fold induction,CYP1A2; 150 µM,0.704 and 0.613 and 0.609
same,CYP1A2 mean fold induction,CYP1A2; 250 µM,0.586 and 0.436
same,CYP1A2 mean fold induction,CYP1A2; 500 µM,0.357 and 0.496 and 0.293
same,CYP1A2 induction,CYP1A2; up to 500 µM,did not induce CYP1A2 nor CYP2B6
same,B:P,[7],0.97
same,detected in Plasma,[8],Yes
same,detected in Urine,[8],Yes
same,role in oxidative metabolism,"human recombinant CYP3A5; 1 µM, 45 min",responsible for the oxidative metabolism
same,Compound remaining (0 min = 100),human recombinant CYP3A5; Incubation time (minutes) 0,100
same,Compound remaining (0 min = 100),human recombinant CYP3A5; Incubation time (minutes) 5,101
same,Compound remaining (0 min = 100),human recombinant CYP3A5; Incubation time (minutes) 15,92.7
same,Compound remaining (0 min = 100),human recombinant CYP3A5; Incubation time (minutes) 30,91.6
same,Compound remaining (0 min = 100),human recombinant CYP3A5; Incubation time (minutes) 45,93.9
same,Compound remaining (0 min = 100),human recombinant CYP2C9; Incubation time (minutes) 0,100
same,Compound remaining (0 min = 100),human recombinant CYP2C9; Incubation time (minutes) 5,102
same,Compound remaining (0 min = 100),human recombinant CYP2C9; Incubation time (minutes) 15,100
same,Compound remaining (0 min = 100),human recombinant CYP2C9; Incubation time (minutes) 30,103
same,Compound remaining (0 min = 100),human recombinant CYP2C9; Incubation time (minutes) 45,111
same,UV absorbance,[9],No absorbance >290 nm; also recorded: no detectable absorption above 290 nm
same,cell viability (MTT),[10],no change in cell viability
